Reference: patent EP4722207A1, “OXOISOINDOLINYL-SUBSTITUTED TETRAHYDROPYRIMIDINEDIONE DERIVATIVE AND USE THEREOF” (Gluetacs Therapeutics (Shanghai) Co., Ltd., priority 2023, dated 2024)

Tests used:
IKZF1 = target: T1, IKZF1 (Homo sapiens, UniProt Q13422+Q96SW2); assay: Western-blot assay, substrate protein degradation in hPBMCs: IKZF1; type: cell-based; settings: for substrate protein remaining % IKZF1: 24 hours of compound treatment, 50 nM and 500 nM; for IKZF1 substrate protein remaining %: compounds at 50 nM and 500 nM, 24 hours
T1 construct: effects of the compounds of the present disclosure on the expression of target proteins in cells; endogenous in cells; host or cells: human PBMCs (hPBMCs)

Jurkat = assay: Cell viability assay (CellTiter-Meiluncell Luminescent), tumor cell proliferation, Jurkat; settings: Homo sapiens, 96 h, read-out: inhibitory activity (IC50, nM) against tumor cells proliferation, Jurkat
Method: On the following day, the test compounds of the present disclosure were subjected to serial dilution. […] Subsequently, 0.5 µL of the test compound dilution was transferred into the 96-well plate containing the cells, with each well containing 100 µL of cell culture medium. […] Into the 96-well plate, the diluted test compounds and corresponding detection reagents were added, resulting in final test compound concentrations of 500 nM and 10 nM, respectively.
(§1) After the cells were treated with the compounds of the present disclosure for a specified period, the cell viability assay reagent was added to the culture medium according to the kit's instructions to determine cell viability. […] All controls were treated using the same procedure as the compounds of the present disclosure. The growth inhibition curves for the compounds of the present disclosure were plotted using Prism GraphPad software, and the IC50 values were calculated therefrom.

GSPT1 = target: T2, GSPT1 (Homo sapiens, UniProt P15170+Q96SW2); assay: Western-blot assay, substrate protein degradation in hPBMCs: GSPT1; type: cell-based; settings: for substrate protein remaining % GSPT1: 24 hours of compound treatment, 50 nM and 500 nM; for GSPT1 substrate protein remaining %: compounds at 50 nM and 500 nM, 24 hours
T2 construct: effects of the compounds of the present disclosure on the expression of target proteins in cells; endogenous in cells; host or cells: human PBMCs (hPBMCs)

IKZF3 = target: T3, IKZF3 (Homo sapiens, UniProt Q96SW2+Q9UKT9); assay: Western-blot assay, substrate protein degradation in hPBMCs: IKZF3; type: cell-based; settings: for substrate protein remaining % IKZF3: 24 hours of compound treatment, 50 nM and 500 nM; for IKZF3 substrate protein remaining %: compounds at 50 nM and 500 nM, 24 hours
T3 construct: effects of the compounds of the present disclosure on the expression of target proteins in cells; endogenous in cells; host or cells: human PBMCs (hPBMCs)

MM.1S = assay: Cell viability assay (CellTiter-Meiluncell Luminescent), tumor cell proliferation, MM.1S; settings: Homo sapiens, MM1.S, 96 h, read-out: inhibitory activity (IC50, nM) against tumor cells proliferation, MM.1S
Method: The tumor cells used herein were cultured in a cell culture medium listed in table 2 at 37°C in an incubator with 5% CO2. Prior to experimentation, all cell lines used were correctly identified by STR profiling, and tested negative for mycoplasma contamination using a mycoplasma detection kit through routine screenings.
On the following day, the test compounds of the present disclosure were subjected to serial dilution. […] Subsequently, 0.5 µL of the test compound dilution was transferred into the 96-well plate containing the cells, with each well containing 100 µL of cell culture medium. […] Into the 96-well plate, the diluted test compounds and corresponding detection reagents were added, resulting in final test compound concentrations of 500 nM and 10 nM, respectively. The experimental procedure is described below using the diluted 2 µM test compound as an example.
as §1

CK1α = target: T4, CK1α (Homo sapiens, UniProt P48729+Q96SW2); assay: Western-blot assay, substrate protein degradation in hPBMCs: CK1α; type: cell-based; settings: for substrate protein remaining % CK1α: 24 hours of compound treatment, 50 nM and 500 nM; for CK1α substrate protein remaining %: compounds at 50 nM and 500 nM, 24 hours
T4 construct: effects of the compounds of the present disclosure on the expression of target proteins in cells; endogenous in cells; host or cells: human PBMCs (hPBMCs)

IKZF2 = target: T5, IKZF2 (Homo sapiens, UniProt Q96SW2+Q9UKS7); assay: Western-blot assay, substrate protein degradation in hPBMCs: IKZF2; type: cell-based; settings: for substrate protein remaining % IKZF2: 24 hours of compound treatment, 50 nM and 500 nM; for IKZF2 substrate protein remaining %: compounds at 50 nM and 500 nM, 24 hours
T5 construct: effects of the compounds of the present disclosure on the expression of target proteins in cells; endogenous in cells; host or cells: human PBMCs (hPBMCs)

WEE1 = target: T6, WEE1 (Homo sapiens, UniProt P30291+Q96SW2); assay: Western-blot assay, substrate protein degradation in hPBMCs: WEE1; type: cell-based; settings: for substrate protein remaining % WEE1: 24 hours of compound treatment, 50 nM and 500 nM; for WEE1 substrate protein remaining %: compounds at 50 nM and 500 nM, 24 hours
T6 construct: effects of the compounds of the present disclosure on the expression of target proteins in cells; endogenous in cells; host or cells: human PBMCs (hPBMCs)

MV-4-11 = assay: Cell viability assay (CellTiter-Meiluncell Luminescent), tumor cell proliferation, MV-4-11; settings: Homo sapiens, MV4-11, 96 h, read-out: inhibitory activity (IC50, nM) against tumor cells proliferation, MV-4-11

T1 sequence (Q13422 whole entry): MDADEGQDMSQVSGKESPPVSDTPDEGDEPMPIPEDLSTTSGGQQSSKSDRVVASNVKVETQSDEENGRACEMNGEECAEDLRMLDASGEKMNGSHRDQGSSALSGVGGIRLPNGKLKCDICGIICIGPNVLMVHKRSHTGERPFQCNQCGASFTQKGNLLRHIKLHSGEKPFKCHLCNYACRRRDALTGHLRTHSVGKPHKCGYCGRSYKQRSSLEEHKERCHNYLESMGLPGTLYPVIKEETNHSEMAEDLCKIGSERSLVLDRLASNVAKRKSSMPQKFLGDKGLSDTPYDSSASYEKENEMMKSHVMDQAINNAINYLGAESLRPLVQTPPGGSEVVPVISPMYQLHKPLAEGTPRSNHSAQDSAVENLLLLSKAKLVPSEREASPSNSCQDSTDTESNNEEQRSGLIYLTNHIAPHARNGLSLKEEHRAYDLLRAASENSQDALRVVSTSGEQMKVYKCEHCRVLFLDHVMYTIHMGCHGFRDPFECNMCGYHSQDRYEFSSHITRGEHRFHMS
T1 sequence (Q96SW2 whole entry): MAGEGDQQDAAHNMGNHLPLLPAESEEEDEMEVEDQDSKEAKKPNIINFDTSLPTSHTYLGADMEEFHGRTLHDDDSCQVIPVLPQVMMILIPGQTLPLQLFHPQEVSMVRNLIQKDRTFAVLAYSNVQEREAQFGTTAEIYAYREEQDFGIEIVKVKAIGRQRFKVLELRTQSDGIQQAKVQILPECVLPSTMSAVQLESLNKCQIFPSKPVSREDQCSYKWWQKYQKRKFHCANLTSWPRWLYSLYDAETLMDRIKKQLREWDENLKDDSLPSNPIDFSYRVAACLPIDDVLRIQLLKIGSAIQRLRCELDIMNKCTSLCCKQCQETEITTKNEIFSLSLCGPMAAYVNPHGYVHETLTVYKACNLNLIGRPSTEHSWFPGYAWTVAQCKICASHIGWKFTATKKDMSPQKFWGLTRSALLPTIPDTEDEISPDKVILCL
T1 sequence (Q16531 whole entry partner): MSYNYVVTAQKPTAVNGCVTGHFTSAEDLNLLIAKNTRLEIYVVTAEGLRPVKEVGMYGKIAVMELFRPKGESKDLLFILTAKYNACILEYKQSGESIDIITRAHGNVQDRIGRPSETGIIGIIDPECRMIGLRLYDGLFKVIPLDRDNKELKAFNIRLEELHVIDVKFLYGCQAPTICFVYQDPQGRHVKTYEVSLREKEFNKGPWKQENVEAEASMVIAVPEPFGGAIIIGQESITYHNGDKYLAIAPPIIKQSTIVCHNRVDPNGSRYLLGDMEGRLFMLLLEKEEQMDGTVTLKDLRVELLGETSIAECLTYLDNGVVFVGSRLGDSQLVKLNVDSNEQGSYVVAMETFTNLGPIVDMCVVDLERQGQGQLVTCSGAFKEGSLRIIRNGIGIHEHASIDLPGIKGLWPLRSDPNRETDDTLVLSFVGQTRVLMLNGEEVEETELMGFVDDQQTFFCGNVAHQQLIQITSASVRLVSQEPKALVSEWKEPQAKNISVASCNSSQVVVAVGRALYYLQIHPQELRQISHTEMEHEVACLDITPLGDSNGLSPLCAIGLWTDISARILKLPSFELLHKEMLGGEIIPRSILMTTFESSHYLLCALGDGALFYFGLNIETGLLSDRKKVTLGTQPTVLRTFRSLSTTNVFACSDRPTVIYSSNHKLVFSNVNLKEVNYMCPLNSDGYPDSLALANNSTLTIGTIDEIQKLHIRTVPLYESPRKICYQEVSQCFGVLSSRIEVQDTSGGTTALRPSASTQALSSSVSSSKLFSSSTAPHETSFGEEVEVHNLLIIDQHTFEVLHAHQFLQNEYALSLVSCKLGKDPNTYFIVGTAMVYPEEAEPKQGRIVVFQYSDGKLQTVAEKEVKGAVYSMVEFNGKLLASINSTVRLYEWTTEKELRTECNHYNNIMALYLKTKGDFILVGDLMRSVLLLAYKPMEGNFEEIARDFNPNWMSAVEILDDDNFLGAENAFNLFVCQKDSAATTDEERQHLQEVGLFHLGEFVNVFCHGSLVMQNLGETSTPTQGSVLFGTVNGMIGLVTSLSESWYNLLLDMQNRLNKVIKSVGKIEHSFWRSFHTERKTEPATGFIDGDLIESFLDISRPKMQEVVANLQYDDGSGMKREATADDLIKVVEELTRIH
T4 sequence (P48729 whole entry): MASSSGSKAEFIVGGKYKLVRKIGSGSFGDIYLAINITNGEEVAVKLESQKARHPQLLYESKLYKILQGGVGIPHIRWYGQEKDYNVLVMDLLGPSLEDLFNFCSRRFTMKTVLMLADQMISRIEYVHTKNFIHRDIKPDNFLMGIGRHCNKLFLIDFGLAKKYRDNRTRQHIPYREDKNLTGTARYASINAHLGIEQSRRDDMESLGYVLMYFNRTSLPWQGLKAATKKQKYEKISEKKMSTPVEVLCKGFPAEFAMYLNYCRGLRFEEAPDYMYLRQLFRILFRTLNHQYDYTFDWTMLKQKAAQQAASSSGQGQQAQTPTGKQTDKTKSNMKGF
T4 sequence (Q96SW2 whole entry): as the sequence (Q96SW2 whole entry) above
T4 sequence (Q16531 whole entry partner): as the sequence (Q16531 whole entry partner) above
T5 sequence (Q9UKS7 whole entry): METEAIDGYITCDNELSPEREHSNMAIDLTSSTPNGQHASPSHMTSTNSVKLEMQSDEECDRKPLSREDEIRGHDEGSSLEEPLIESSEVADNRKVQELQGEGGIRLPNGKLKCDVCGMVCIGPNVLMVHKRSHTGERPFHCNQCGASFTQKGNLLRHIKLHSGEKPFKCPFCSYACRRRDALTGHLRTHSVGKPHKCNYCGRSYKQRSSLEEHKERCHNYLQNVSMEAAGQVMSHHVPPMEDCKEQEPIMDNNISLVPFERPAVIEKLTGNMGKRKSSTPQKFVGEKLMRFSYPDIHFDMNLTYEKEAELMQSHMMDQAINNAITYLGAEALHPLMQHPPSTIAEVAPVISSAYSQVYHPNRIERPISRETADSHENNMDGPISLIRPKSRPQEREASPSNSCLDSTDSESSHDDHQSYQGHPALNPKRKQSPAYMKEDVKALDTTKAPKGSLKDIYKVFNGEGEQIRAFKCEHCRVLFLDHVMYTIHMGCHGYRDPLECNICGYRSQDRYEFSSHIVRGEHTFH
T5 sequence (Q96SW2 whole entry): as the sequence (Q96SW2 whole entry) above
T5 sequence (Q16531 whole entry partner): as the sequence (Q16531 whole entry partner) above
T3 sequence (Q9UKT9 whole entry): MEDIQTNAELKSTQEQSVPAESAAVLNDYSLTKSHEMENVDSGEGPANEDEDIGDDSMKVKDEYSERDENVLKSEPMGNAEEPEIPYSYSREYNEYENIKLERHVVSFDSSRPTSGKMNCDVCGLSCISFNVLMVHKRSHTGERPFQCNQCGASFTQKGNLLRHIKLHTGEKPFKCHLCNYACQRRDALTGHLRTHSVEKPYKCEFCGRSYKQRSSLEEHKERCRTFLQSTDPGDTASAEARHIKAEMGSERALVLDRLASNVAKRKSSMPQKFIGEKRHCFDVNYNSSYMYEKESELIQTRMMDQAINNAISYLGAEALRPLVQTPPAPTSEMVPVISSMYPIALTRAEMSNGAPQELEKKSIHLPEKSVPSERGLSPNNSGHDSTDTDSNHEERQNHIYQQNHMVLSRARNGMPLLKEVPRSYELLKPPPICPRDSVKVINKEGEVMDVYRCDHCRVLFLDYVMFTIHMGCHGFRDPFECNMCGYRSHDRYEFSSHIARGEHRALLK
T3 sequence (Q96SW2 whole entry): as the sequence (Q96SW2 whole entry) above
T3 sequence (Q16531 whole entry partner): as the sequence (Q16531 whole entry partner) above
T2 sequence (P15170 whole entry): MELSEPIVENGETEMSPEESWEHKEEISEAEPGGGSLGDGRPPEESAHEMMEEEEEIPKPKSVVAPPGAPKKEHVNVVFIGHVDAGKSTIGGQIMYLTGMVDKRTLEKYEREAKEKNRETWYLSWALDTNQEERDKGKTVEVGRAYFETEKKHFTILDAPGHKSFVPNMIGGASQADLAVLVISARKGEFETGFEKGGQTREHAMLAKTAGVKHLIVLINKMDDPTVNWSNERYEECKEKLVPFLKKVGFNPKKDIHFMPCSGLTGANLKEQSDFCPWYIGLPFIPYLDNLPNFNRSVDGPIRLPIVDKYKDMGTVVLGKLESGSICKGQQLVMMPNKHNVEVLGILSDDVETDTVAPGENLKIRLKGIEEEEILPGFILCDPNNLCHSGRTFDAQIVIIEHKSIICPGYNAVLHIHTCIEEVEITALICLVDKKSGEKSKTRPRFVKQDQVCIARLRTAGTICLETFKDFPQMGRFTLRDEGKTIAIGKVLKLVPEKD
T2 sequence (Q96SW2 whole entry): as the sequence (Q96SW2 whole entry) above
T2 sequence (Q16531 whole entry partner): as the sequence (Q16531 whole entry partner) above

| SMILES | substrate protein remaining % IKZF1 (IKZF1) | IC50 (Jurkat) [nM] | substrate protein remaining % GSPT1 (GSPT1) | substrate protein remaining % IKZF3 (IKZF3) | IC50 (MM.1S) [nM] | substrate protein remaining % CK1α (CK1α) | substrate protein remaining % IKZF2 (IKZF2) | substrate protein remaining % WEE1 (WEE1) | IKZF1 substrate protein remaining % (IKZF1) | GSPT1 substrate protein remaining % (GSPT1) | IKZF3 substrate protein remaining % (IKZF3) | CK1α substrate protein remaining % (CK1α) | IKZF2 substrate protein remaining % (IKZF2) | WEE1 substrate protein remaining % (WEE1) | IC50 (MV-4-11) [nM] |
| --- | --- | --- | --- | --- | --- | --- | --- | --- | --- | --- | --- | --- | --- | --- | --- |
| O=C1CCN(N2Cc3cc(CN4CC=C(c5c[nH]c6ncccc56)CC4)ccc3C2=O)C(=O)N1 [GT-07577, 1-(5-((4-(1H-pyrrolo[2,3-b]pyridin-3-yl)-3,6-dihydropyridin-1(2H)-yl)methyl)-1-oxoisoindolin-2-yl)dihydropyrimidine-2,4(1H,3H)-dione] | A (0% ≤ substrate protein remaining % ≤ 80%) | 500 to 1000 | A (0% ≤ substrate protein remaining % ≤ 80%) | A (0% ≤ substrate protein remaining % ≤ 80%) | 300 to 500 | A (0% ≤ substrate protein remaining % ≤ 80%) | B (80%< substrate protein remaining %≤ 100%) | A (0% ≤ substrate protein remaining % ≤ 80%) | – | – | – | – | – | – | – |
| O=C1CCN(N2Cc3cc(CN4CC=C(c5ccco5)CC4)ccc3C2=O)C(=O)N1 [GT-04874, 1-(5-((4-(furan-2-yl)-3,6-dihydropyridin-1(2H)-yl)methyl)-1-oxoisoindolin-2-yl)dihydropyrimidine-2,4(1H,3H)-dione] | – | 500 to 1000 | – | – | 100 to 300 | – | – | – | A ("A" is defined as 0% ≤ substrate protein remaining % ≤ 80%) | A ("A" is defined as 0% ≤ substrate protein remaining % ≤ 80%) | A ("A" is defined as 0% ≤ substrate protein remaining % ≤ 80%) | B ("B" is defined as 80%< substrate protein remaining %≤ 100%) | B ("B" is defined as 80%< substrate protein remaining %≤ 100%) | A ("A" is defined as 0% ≤ substrate protein remaining % ≤ 80%) | – |
| O=C1CCN(N2Cc3cc(CN4CC=C(c5n[nH]c6cc(F)ccc56)CC4)ccc3C2=O)C(=O)N1 [GT-07578, 1-(5-((4-(6-fluoro-1H-indazol-3-yl)-3,6-dihydropyridin-1(2H)-yl)methyl)-1-oxoisoindolin-2-yl)dihydropyrimidine-2,4(1H,3H)-dione] | A (0% ≤ substrate protein remaining % ≤ 80%) | 50 to 100 | A (0% ≤ substrate protein remaining % ≤ 80%) | B (80%< substrate protein remaining %≤ 100%) | 50 to 100 | B (80%< substrate protein remaining %≤ 100%) | A (0% ≤ substrate protein remaining % ≤ 80%) | A (0% ≤ substrate protein remaining % ≤ 80%) | – | – | – | – | – | – | – |
| Cc1cccc(N2CCN(Cc3ccc4c(c3)CN(N3CCC(=O)NC3=O)C4=O)CC2)c1 [GT-06770, 1-(1-oxo-5-((4-(m-tolyl)piperazin-1-yl)methyl)isoindolin-2-yl)dihydropyrimidine-2,4(1H,3H)-dione] | – | 500 to 1000 | – | – | – | – | – | – | A ("A" is defined as 0% ≤ substrate protein remaining % ≤ 80%) | A ("A" is defined as 0% ≤ substrate protein remaining % ≤ 80%) | A ("A" is defined as 0% ≤ substrate protein remaining % ≤ 80%) | A ("A" is defined as 0% ≤ substrate protein remaining % ≤ 80%) | A ("A" is defined as 0% ≤ substrate protein remaining % ≤ 80%) | A ("A" is defined as 0% ≤ substrate protein remaining % ≤ 80%) | 500 to 1000 |
| O=C1CCN(N2Cc3cc(CN4CCC(c5cccs5)CC4)ccc3C2=O)C(=O)N1 [GT-07511, 1-(1-oxo-5-((4-(thiophen-2-yl)piperidin-1-yl)methyl)isoindolin-2-yl)dihydropyrimidine-2,4(1H,3H)-dione] | A (0% ≤ substrate protein remaining % ≤ 80%) | 500 to 1000 | A (0% ≤ substrate protein remaining % ≤ 80%) | B (80%< substrate protein remaining %≤ 100%) | 500 to 1000 | A (0% ≤ substrate protein remaining % ≤ 80%) | A (0% ≤ substrate protein remaining % ≤ 80%) | A (0% ≤ substrate protein remaining % ≤ 80%) | – | – | – | – | – | – | – |
| O=C1CCN(N2Cc3cc(CN4CCN(C(c5cccc(F)c5)c5cccc(F)c5)CC4)ccc3C2=O)C(=O)N1 [GT-07293, 1-(5-((4-(bis(3-fluorophenyl)methyl)piperazin-1-yl)methyl)-1-oxoisoindolin-2-yl)dihydropyrimidine-2,4(1H,3H)-dione] | – | 100 to 300 | – | – | 100 to 300 | – | – | – | B ("B" is defined as 80%< substrate protein remaining %≤ 100%) | A ("A" is defined as 0% ≤ substrate protein remaining % ≤ 80%) | A ("A" is defined as 0% ≤ substrate protein remaining % ≤ 80%) | B ("B" is defined as 80%< substrate protein remaining %≤ 100%) | A ("A" is defined as 0% ≤ substrate protein remaining % ≤ 80%) | A ("A" is defined as 0% ≤ substrate protein remaining % ≤ 80%) | – |
| O=C1CCN(N2Cc3cc(CN4CCN(c5cc(Cl)cc(Cl)c5)CC4)ccc3C2=O)C(=O)N1 [GT-06776, 1-(5-((4-(3,5-dichlorophenyl)piperazin-1-yl)methyl)-1-oxoisoindolin-2-yl)dihydropyrimidine-2,4(1H,3H)-dione] | – | 500 to 1000 | – | – | – | – | – | – | B ("B" is defined as 80%< substrate protein remaining %≤ 100%) | A ("A" is defined as 0% ≤ substrate protein remaining % ≤ 80%) | B ("B" is defined as 80%< substrate protein remaining %≤ 100%) | A ("A" is defined as 0% ≤ substrate protein remaining % ≤ 80%) | A ("A" is defined as 0% ≤ substrate protein remaining % ≤ 80%) | A ("A" is defined as 0% ≤ substrate protein remaining % ≤ 80%) | 100 to 300 |
| O=C1CCN(N2Cc3cc(CN4CCC(c5cccc(Cl)c5Cl)CC4)ccc3C2=O)C(=O)N1 [GT-06893, 1-(5-((4-(2,3-dichlorophenyl)piperidin-1-yl)methyl)-1-oxoisoindolin-2-yl)dihydropyrimidine-2,4(1H,3H)-dione] | – | 500 to 1000 | – | – | – | – | – | – | A ("A" is defined as 0% ≤ substrate protein remaining % ≤ 80%) | A ("A" is defined as 0% ≤ substrate protein remaining % ≤ 80%) | B ("B" is defined as 80%< substrate protein remaining %≤ 100%) | B ("B" is defined as 80%< substrate protein remaining %≤ 100%) | A ("A" is defined as 0% ≤ substrate protein remaining % ≤ 80%) | B ("B" is defined as 80%< substrate protein remaining %≤ 100%) | 100 to 300 |
| O=C1CCN(N2Cc3cc(CN4CCC(c5cccc(F)c5Cl)CC4)ccc3C2=O)C(=O)N1 [GT-06894, 1-(5-((4-(2-chloro-3-fluorophenyl)piperidin-1-yl)methyl)-1-oxoisoindolin-2-yl)dihydropyrimidine-2,4(1H,3H)-dione] | – | 500 to 1000 | – | – | – | – | – | – | A ("A" is defined as 0% ≤ substrate protein remaining % ≤ 80%) | A ("A" is defined as 0% ≤ substrate protein remaining % ≤ 80%) | B ("B" is defined as 80%< substrate protein remaining %≤ 100%) | B ("B" is defined as 80%< substrate protein remaining %≤ 100%) | B ("B" is defined as 80%< substrate protein remaining %≤ 100%) | B ("B" is defined as 80%< substrate protein remaining %≤ 100%) | 300 to 500 |
